Columns and labels:
Cbl (aa49-434) [1] = molecular target: T1, Cbl (aa49-434) (Homo sapiens, UniProt P22681); test: Biotin-labelled Cbl biochemical assay (CBL/E2-Ub binding, HTRF); settings: 5.0 nM biotin labelled Cbl
T1 construct: Cbl (aa49-434, in-house); made in house
T1 sequence (P22681 49-434): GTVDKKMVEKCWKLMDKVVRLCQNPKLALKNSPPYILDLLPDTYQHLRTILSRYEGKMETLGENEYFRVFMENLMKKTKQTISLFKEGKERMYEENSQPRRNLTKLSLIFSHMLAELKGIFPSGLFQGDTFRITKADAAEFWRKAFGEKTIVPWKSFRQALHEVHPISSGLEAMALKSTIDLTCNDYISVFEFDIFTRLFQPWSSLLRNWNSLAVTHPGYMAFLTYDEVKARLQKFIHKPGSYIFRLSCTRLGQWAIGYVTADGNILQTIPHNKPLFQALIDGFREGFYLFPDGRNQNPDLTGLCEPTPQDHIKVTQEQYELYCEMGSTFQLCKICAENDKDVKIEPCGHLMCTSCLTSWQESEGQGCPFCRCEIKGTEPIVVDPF
Method: (§1) The assay in the absence of a Cbl-b/Cbl inhibitor, where phosphorylation of Cbl-b/Cbl by the Src kinase allows UbcH5B-Ub to bind to Cbl-b/Cbl and brings the Bodipy-Fluorescein tagged ubiquitin in proximity to the streptavidin-terbium bound to the N-terminal biotinylated Avi-tagged Cbl-b/Cbl. […] The lack of a FRET signal indicates Cbl-b/Cbl is inhibited by the Cbl-b/Cbl inhibitor.
(§2) 5.0 nM recombinant biotin labelled Cbl was pre-incubated with a serial dilution of compounds (maximum concentration is 100 µM, 3-fold serially diluted, 16 points) at room temperature for 1.5 hour in an assay buffer containing 50 mM HEPES, pH 7.0, 100 mM NaCl, 0.01% BSA, 1 mM DTT, 0.01% Triton X-100. Then 10 nM in-house UbcH5B-Ub conjugate protein, 60 nM SRC (aa251-536, in-house), 0.5 mM ATP, 5 mM MgCl2 and Streptavidin-Tb cryptate (Cat: 610SATLB, Cisbio Bioassays) were added to plate and further incubated at room temperature for 2 hours.

Cbl-b (aa36-427) [2] = molecular target: T2, Cbl-b (aa36-427) (Homo sapiens, UniProt Q13191); test: Biotin-labelled Cbl-b biochemical assay (CBLB/E2-Ub binding, HTRF); settings: 5.0 nM biotin labelled Cbl-b
T2 construct: Cbl-b (aa36-427, in-house); made in house
Method: as §1
as §2, with “labelled Cbl-b” for “labelled Cbl”, “100 μM,” for “100 µM,”, “Then 25” for “Then 10”

Cbl (aa49-434) [3] = molecular target: T1, Cbl (aa49-434); test: Co-expressed Cbl with BirA biochemical assay (CBL/E2-Ub binding, HTRF); settings: 0.6 nM Cbl co-expressed with BirA, read-out: co-express CBL/E2-Ub-binding assay IC50
Excerpt: as §1

Cbl-b (aa36-427) [4] = molecular target: T2, Cbl-b (aa36-427); test: Co-expressed Cbl-b with BirA biochemical assay (CBLB/E2-Ub binding, HTRF); settings: 0.6 nM Cbl-b co-expressed with BirA, HTRF; read-out: co-express CBLB/E2-Ub-binding assay IC50
Excerpt: as §1

T2 sequence (Q13191 36-427): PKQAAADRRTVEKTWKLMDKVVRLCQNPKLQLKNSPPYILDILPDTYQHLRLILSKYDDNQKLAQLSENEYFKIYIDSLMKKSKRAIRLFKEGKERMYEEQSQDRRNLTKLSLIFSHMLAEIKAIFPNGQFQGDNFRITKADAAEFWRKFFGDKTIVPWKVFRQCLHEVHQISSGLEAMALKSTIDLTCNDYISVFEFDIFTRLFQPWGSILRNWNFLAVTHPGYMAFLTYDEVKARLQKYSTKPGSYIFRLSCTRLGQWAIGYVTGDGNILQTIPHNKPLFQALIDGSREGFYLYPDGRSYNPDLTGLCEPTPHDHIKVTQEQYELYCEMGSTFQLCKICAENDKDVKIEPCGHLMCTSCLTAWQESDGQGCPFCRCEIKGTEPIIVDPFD

Compound	IC50 (Cbl (aa49-434) [1])	IC50 (Cbl-b (aa36-427) [2])	IC50 (Cbl (aa49-434) [3])	IC50 (Cbl-b (aa36-427) [4])
C[C@H]1CCCN(Cc2cc(C(=O)Nc3cccc([C@]4(c5nncn5C)C[C@@H](C)C4)c3)nc3c2CC[C@@H]3C)C1 (single isomer, unassigned) [Compound C3, (S)-7-methyl-N-(3-((1s,3R)-3-methyl-1-(4-methyl-4H-1,2,4-triazol-3-yl)cyclobutyl)phenyl)-4-(((S)-3-methylpiperidin-1-yl)methyl)-6,7-dihydro-5H-cyclopenta[b]pyridine-2-carboxamide or (R)-7-methyl-N-(3-((1s,3S)-3-methyl-1-(4-methyl-4H-1,2,4-triazol-3-yl)cyclobutyl)phenyl)-4-(((S)-3-methylpiperidin-1-yl)methyl)-6,7-dihydro-5H-cyclopenta[b]pyridine-2-carboxamide]	21.7 nM	4.8 nM	–	–
C[C@H]1CCCN(Cc2cc(C(=O)Nc3cccc([C@]4(c5nncn5C)C[C@@H](C)C4)c3)nc3c2CC[C@@H]3C)C1 (single isomer, unassigned) [Compound C4, (S)-7-methyl-N-(3-((1s,3R)-3-methyl-1-(4-methyl-4H-1,2,4-triazol-3-yl)cyclobutyl)phenyl)-4-(((S)-3-methylpiperidin-1-yl)methyl)-6,7-dihydro-5H-cyclopenta[b]pyridine-2-carboxamide or (R)-7-methyl-N-(3-((1s,3S)-3-methyl-1-(4-methyl-4H-1,2,4-triazol-3-yl)cyclobutyl)phenyl)-4-(((S)-3-methylpiperidin-1-yl)methyl)-6,7-dihydro-5H-cyclopenta[b]pyridine-2-carboxamide]	76 nM	16.2 nM	–	–
C[C@H]1CCCN(Cc2cc(C(=O)Nc3cccc([C@]4(c5nncn5C)C[C@@H](C)C4)c3)c3nccn3c2)C1 [Compound A1, N-(3-((1s,3R)-3-methyl-1-(4-methyl-4H-1,2,4-triazol-3-yl)cyclobutyl)phenyl)-6-(((S)-3-methylpiperidin-1-yl)methyl)imidazo[1,2-a]pyridine-8-carboxamide]	31.8 nM	5.36 nM	–	–
Cn1cnnc1C[C@]1(c2cccc(NC(=O)c3cc(CNC4CCCCC4)c4c(n3)C(C)(C)CO4)c2)C[C@H](C#N)C1 [Compound C48, N-(3-((1r, 3r)-3-cyano-1-((4-methyl-4H-1,2,4-triazol-3-yl)methyl)cyclobutyl)phenyl)-7-((cyclohexylamino)methyl)-3,3-dimethyl-2,3-dihydrofuro[3,2-b]pyridine-5-carboxamide]	–	–	6.3 nM	2.7 nM
Cn1cnnc1[C@]1(c2cccc(NC(=O)c3cc(CNCC4CCC4)c4c(n3)C(C)(C)CN4)c2)C[C@H](C)C1 [Compound C49, 7-(((cyclobutylmethyl)amino)methyl)-3,3-dimethyl-N-(3-((1s, 3s)-3-methyl-1-(4-methyl-4H-1,2,4-triazol-3-yl)cyclobutyl)phenyl)-2,3-dihydro-1H-pyrrolo[3,2-b]pyridine-5-carboxamide]	–	–	5.9 nM	2 nM
C[C@@H]1CN(Cc2cc(C(=O)Nc3cccc([C@]4(c5nncn5C)C[C@@H](C)C4)c3)nc3c2NCC32CC2)CC[C@@H]1F [Compound C50, 7′-(((3R,4S)-4-fluoro-3-methylpiperidin-1-yl)methyl)-N-(3-((1s,3S)-3-methyl-1-(4-methyl-4H-1,2,4-triazol-3-yl)cyclobutyl)phenyl)-1′,2′-dihydrospiro[cyclopropane-1,3′-pyrrolo[3,2-b]pyridine]-5′-carboxamide]	–	–	0.8 nM	0.7 nM
Cn1cnnc1[C@]1(c2cncc(NC(=O)c3cc(CNCC4CCC4)c4c(n3)C(F)(F)CC4)c2)C[C@H](C)C1 [Compound C52, 4-{[(cyclobutylmethyl)amino]methyl}-7,7-difluoro-N-{5-[(1r, 3s)-3-methyl-1-(4-methyl-1,2,4-triazol-3-yl)cyclobutyl]pyridin-3-yl}-5H,6H-cyclopenta[b]pyridine-2-carboxamide]	–	–	14.8 nM	3.3 nM
CC(C)CNCc1cc(C(=O)Nc2cncc([C@]3(c4nncn4C)C[C@@H](C)C3)c2)nc2c1CCC2(F)F [Compound C53, 7,7-difluoro-4-{[(2-methylpropyl)amino]methyl}-N-{5-[(1r, 3s)-3-methyl-1-(4-methyl-1,2,4-triazol-3-yl)cyclobutyl]pyridin-3-yl}-5H,6H-cyclopenta[b]pyridine-2-carboxamide]	–	–	15.8 nM	3.7 nM
Cn1cnnc1[C@]1(c2cccc(NC(=O)c3cc(CNC4CCCCCC4)c4c(n3)C(C)(C)CC4)c2)C[C@H](CC#N)C1 [Compound C54, N-(3-((1s, 3s)-3-(cyanomethyl)-1-(4-methyl-4H-1,2,4-triazol-3-yl)cyclobutyl)phenyl)-4-((cycloheptylamino)methyl)-7,7-dimethyl-6,7-dihydro-5H-cyclopenta[b]pyridine-2-carboxamide]	–	–	6.8 nM	1.3 nM
C[C@@H]1CN(Cc2cc(C(=O)Nc3cccc([C@]4(c5nncn5C)C[C@@H](C)C4)c3)nc3c2CCC3(C)C)CC[C@@H]1F [Compound C55, 4-(((3R,4S)-4-fluoro-3-methylpiperidin-1-yl)methyl)-7,7-dimethyl-N-(3-((1s,3S)-3-methyl-1-(4-methyl-4H-1,2,4-triazol-3-yl)cyclobutyl)phenyl)-6,7-dihydro-5H-cyclopenta[b]pyridine-2-carboxamide]	–	–	1.9 nM	1.1 nM
Cn1cnnc1[C@]1(c2cccc(NC(=O)c3cc(CNCC4CCC4)c4c(n3)C(F)(F)CC4)c2)C[C@H](C)C1 [Compound C56, 4-(((cyclobutylmethyl)amino)methyl)-7,7-difluoro-N-(3-((1s, 3s)-3-methyl-1-(4-methyl-4H-1,2,4-triazol-3-yl)cyclobutyl)phenyl)-6,7-dihydro-5H-cyclopenta[b]pyridine-2-carboxamide]	–	–	2.6 nM	0.5 nM
Cn1cnnc1[C@]1(c2cccc(NC(=O)c3cc(CNCC4CCC4)c4c(n3)C(C)(C)CC4)c2)C[C@H](C)C1 [Compound C57, 4-(((cyclobutylmethyl)amino)methyl)-7,7-dimethyl-N-(3-((1s, 3s)-3-methyl-1-(4-methyl-4H-1,2,4-triazol-3-yl)cyclobutyl)phenyl)-6,7-dihydro-5H-cyclopenta[b]pyridine-2-carboxamide]	–	–	3.4 nM	0.9 nM
C[C@@H]1CN(Cc2cc(C(=O)Nc3cncc([C@]4(c5nncn5C)C[C@@H](C)C4)c3)nc3c2NCC3(C)C)CC[C@@H]1F [Compound C58, 7-(((3R,4S)-4-fluoro-3-methylpiperidin-1-yl)methyl)-3,3-dimethyl-N-(5-((1s,3S)-3-methyl-1-(4-methyl-4H-1,2,4-triazol-3-yl)cyclobutyl)pyridin-3-yl)-2,3-dihydro-1H-pyrrolo[3,2-b]pyridine-5-carboxamide]	–	–	3.2 nM	1.7 nM
C[C@H](NCc1cc(C(=O)Nc2cccc([C@]3(c4nncn4C)C[C@@H](C)C3)c2)nc2c1CCC2(F)F)C1CCC1 [Compound C59, 4-((((S)-1-cyclobutylethyl)amino)methyl)-7,7-difluoro-N-(3-((1s,3R)-3-methyl-1-(4-methyl-4H-1,2,4-triazol-3-yl)cyclobutyl)phenyl)-6,7-dihydro-5H-cyclopenta[b]pyridine-2-carboxamide]	–	–	7.3 nM	2.5 nM
C[C@H](NCc1cc(C(=O)Nc2cccc([C@]3(c4nncn4C)C[C@@H](C)C3)c2)nc2c1CCC2(F)F)C1CC1 [Compound C60, 4-((((S)-1-cyclopropylethyl)amino)methyl)-7,7-difluoro-N-(3-((1s,3R)-3-methyl-1-(4-methyl-4H-1,2,4-triazol-3-yl)cyclobutyl)phenyl)-6,7-dihydro-5H-cyclopenta[b]pyridine-2-carboxamide]	–	–	9.2 nM	1.1 nM
N-(3-((1s,3R)-3-methyl-1-(4-methyl-4H-1,2,4-triazol-3-yl)cyclobutyl)phenyl)-7′-(((S)-3-methylpiperidin-1-yl)methyl)-1′,2′-dihydrospiro[cyclopropane-1,3′-pyrrolo[3,2-b]pyridine]-5′-carboxamide [Compound C51]	–	–	4.9 nM	1.5 nM
